This data set can be described thus: Plasma free fraction (fP) of the PET tracer. It is filed as in vitro ADME, human. To be noted: for fraction unbound: human, plasma. The source says: Arterial plasma radioactivity, metabolites, and plasma free fraction (fP) were collected and assayed as previously described (Parsey et al., 2006; Parsey et al., 2000). Unmetabolized parent fraction levels were fit with a Hill function (Wu et al., 2007). The input function was corrected for unmetabolized tracer by multiplying the total plasma counts with the interpolated parent fraction. The metabolite-corrected arterial input function was fit as the combination of a straight line and the sum of three decreasing exponentials, describing the function before and after the peak, respectively.

Where two headings read alike, the source gives them in different places.

Results on one molecule are retold here after patent US20210059590A1, “IDENTIFICATION OF AND TREATMENT FOR PERSONS AT HIGH RISK FOR DEVELOPING MAJOR DEPRESSIVE DISORDER” (The Trustees of Columbia University in the City of New York, priority 2018, published 2021).

With `COc1ccccc1N1CCN(CCN(C(=O)C2CCCCC2)c2ccccn2)CC1` [[^11C]WAY-100635, N-[2-[4-(2-methoxyphenyl)-1-piperazinyl]ethyl]-N-2-pyridinylcyclohexanecarboxamide], the “Percent Free Fraction” value is 6.15 ± 1.72% (Depressed NRM MDD subjects, N=30, mean ± SD) and 8.10 ± 2.39% (Healthy Volunteers (HV), N=51, mean ± SD). Moreover, the fraction unbound runs as follows: (Depressed NRM MDD subjects, N=30, mean ± SD, read-out: Percent Free Fraction) approximately 0.062; (Healthy Volunteers (HV), N=51, mean ± SD, read-out: Percent Free Fraction) approximately 0.08; (High Risk (HR) subjects, N=9, mean ± SD, read-out: Percent Free Fraction) 0.065; (Medication Exposed MDD patients, n=66, off antidepressants at least two weeks, read-out: Plasma free fraction (fp)) 0.07 ± 0.02; (Medication Naïve MDD patients, n=32, read-out: Plasma free fraction (fp)) 0.06 ± 0.02.
